Measurements published in PubChem BioAssay (NCI).
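Compound exposure: 48 hours, 5 concentrations, 96-well plates. TGI marks complete inhibition of growth.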

Legend:
Test in all cases: DTP human tumour cell line panel, 48 h
HT29 colon = system: HT29 colon
786-0 renal = system: 786-0 renal
SNB-78 CNS = system: SNB-78 CNS
SF-539 CNS = system: SF-539 CNS
HCT-116 colon = system: HCT-116 colon
CAKI-1 renal = system: CAKI-1 renal
LXFL 529 NSCLC = system: LXFL 529 NSCLC
SW-620 colon = system: SW-620 colon
SN12C renal = system: SN12C renal
HL-60(TB) leukemia = system: HL-60(TB) leukemia
HOP-18 NSCLC = system: HOP-18 NSCLC
SK-MEL-5 melanoma = system: SK-MEL-5 melanoma
DLD-1 colon = system: DLD-1 colon
SNB-19 CNS = system: SNB-19 CNS
EKVX NSCLC = system: EKVX NSCLC
UACC-257 melanoma = system: UACC-257 melanoma
TK-10 renal = system: TK-10 renal
NCI-H23 lung = system: NCI-H23 lung
HOP-62 NSCLC = system: HOP-62 NSCLC
K-562 leukemia = system: K-562 leukemia
SK-MEL-2 melanoma = system: SK-MEL-2 melanoma
SF-295 CNS = system: SF-295 CNS
DMS 273 small cell lung = system: DMS 273 small cell lung
MOLT-4 leukemia = system: MOLT-4 leukemia
SK-MEL-28 melanoma = system: SK-MEL-28 melanoma
HCC-2998 colon = system: HCC-2998 colon
DMS 114 small cell lung = system: DMS 114 small cell lung
IGROV1 ovarian = system: IGROV1 ovarian
HCT-15 colon = system: HCT-15 colon
RPMI-8226 leukemia = system: RPMI-8226 leukemia
SF-268 CNS = system: SF-268 CNS
ACHN renal = system: ACHN renal
XF 498 CNS = system: XF 498 CNS
M14 melanoma = system: M14 melanoma
OVCAR-8 ovarian = system: OVCAR-8 ovarian
LOX IMVI melanoma = system: LOX IMVI melanoma
OVCAR-5 ovarian = system: OVCAR-5 ovarian
U251 CNS = system: U251 CNS
SK-OV-3 ovarian = system: SK-OV-3 ovarian
SR leukemia = system: SR leukemia
CCRF-CEM leukemia = system: CCRF-CEM leukemia
KM20L2 colon = system: KM20L2 colon
NCI-H226 lung = system: NCI-H226 lung
OVCAR-4 ovarian = system: OVCAR-4 ovarian
MALME-3M melanoma = system: MALME-3M melanoma
RXF 393 renal = system: RXF 393 renal
KM12 colon = system: KM12 colon
M19-MEL melanoma = system: M19-MEL melanoma
UACC-62 melanoma = system: UACC-62 melanoma
A549 NSCLC = system: A549 NSCLC
A498 renal = system: A498 renal
HOP-92 NSCLC = system: HOP-92 NSCLC
UO-31 renal = system: UO-31 renal
NCI-H460 lung = system: NCI-H460 lung
SNB-75 CNS = system: SNB-75 CNS
NCI-H522 lung = system: NCI-H522 lung
OVCAR-3 ovarian = system: OVCAR-3 ovarian
COLO 205 colon = system: COLO 205 colon

Compound N/C(=N\C(=S)N1CCCCC1)N1CCCCC1 has a TGI (HT29 colon) of over 100 µM, a TGI (786-0 renal) of over 100 µM and a TGI (SNB-78 CNS) of over 100 µM. For the same compound, the TGI (SF-539 CNS) was over 100 µM, the TGI (HCT-116 colon) was over 100 µM and the TGI (CAKI-1 renal) was over 100 µM. It also gave a TGI (LXFL 529 NSCLC) of over 100 µM, a TGI (SW-620 colon) of over 100 µM and a TGI (SN12C renal) of over 100 µM. For the same compound, the TGI (HL-60(TB) leukemia) was over 100 µM, the TGI (HOP-18 NSCLC) was over 100 µM and the TGI (SK-MEL-5 melanoma) was over 100 µM. For the same compound, the TGI (DLD-1 colon) was over 100 µM, the TGI (SNB-19 CNS) was over 100 µM and the TGI (EKVX NSCLC) was over 100 µM. For the same compound, the TGI (UACC-257 melanoma) was over 100 µM, the TGI (TK-10 renal) was over 100 µM and the TGI (NCI-H23 lung) was over 100 µM. The TGI (HOP-62 NSCLC) was over 100 µM, the TGI (K-562 leukemia) was over 100 µM and the TGI (SK-MEL-2 melanoma) was over 100 µM. The TGI (SF-295 CNS) was over 100 µM, the TGI (DMS 273 small cell lung) was over 100 µM and the TGI (MOLT-4 leukemia) was over 100 µM. The TGI (SK-MEL-28 melanoma) was over 100 µM, the TGI (HCC-2998 colon) was over 100 µM and the TGI (DMS 114 small cell lung) was over 100 µM. It also gave a TGI (IGROV1 ovarian) of over 100 µM, a TGI (HCT-15 colon) of over 100 µM and a TGI (RPMI-8226 leukemia) of over 100 µM. The TGI (SF-268 CNS) was over 100 µM, the TGI (ACHN renal) was over 100 µM and the TGI (XF 498 CNS) was over 100 µM. The TGI (M14 melanoma) was over 100 µM, the TGI (OVCAR-8 ovarian) was over 100 µM and the TGI (LOX IMVI melanoma) was over 100 µM. For the same compound, the TGI (OVCAR-5 ovarian) was over 100 µM, the TGI (U251 CNS) was over 100 µM and the TGI (SK-OV-3 ovarian) was over 100 µM. It also gave a TGI (SR leukemia) of over 100 µM, a TGI (CCRF-CEM leukemia) of over 100 µM and a TGI (KM20L2 colon) of over 100 µM. It also gave a TGI (NCI-H226 lung) of over 100 µM, a TGI (OVCAR-4 ovarian) of over 100 µM and a TGI (MALME-3M melanoma) of over 100 µM. It also gave a TGI (RXF 393 renal) of over 100 µM, a TGI (KM12 colon) of over 100 µM and a TGI (M19-MEL melanoma) of over 100 µM. It also gave a TGI (UACC-62 melanoma) of over 100 µM, a TGI (A549 NSCLC) of over 100 µM and a TGI (A498 renal) of over 100 µM. It also gave a TGI (HOP-92 NSCLC) of over 100 µM, a TGI (UO-31 renal) of over 100 µM and a TGI (NCI-H460 lung) of over 100 µM. It also gave a TGI (SNB-75 CNS) of over 100 µM and a TGI (NCI-H522 lung) of over 100 µM.

CN(C)CC1(C)CC/C(=C\c2ccc3c(c2)OCO3)C1=O (stereo not drawn) gave a TGI (HT29 colon) of over 100 µM, a TGI (786-0 renal) of over 100 µM and a TGI (SNB-78 CNS) of over 100 µM. The TGI (SF-539 CNS) was over 100 µM, the TGI (HCT-116 colon) was over 100 µM and the TGI (CAKI-1 renal) was over 100 µM. It also gave a TGI (LXFL 529 NSCLC) of over 100 µM, a TGI (SW-620 colon) of over 100 µM and a TGI (SN12C renal) of over 100 µM. It also gave a TGI (HOP-18 NSCLC) of over 100 µM, a TGI (SK-MEL-5 melanoma) of over 100 µM and a TGI (DLD-1 colon) of over 100 µM. For the same compound, the TGI (SNB-19 CNS) was over 100 µM, the TGI (UACC-257 melanoma) was over 100 µM and the TGI (TK-10 renal) was over 100 µM. The TGI (NCI-H23 lung) was over 100 µM, the TGI (HOP-62 NSCLC) was over 100 µM and the TGI (K-562 leukemia) was over 100 µM. It also gave a TGI (SK-MEL-2 melanoma) of over 100 µM, a TGI (SF-295 CNS) of over 100 µM and a TGI (OVCAR-3 ovarian) of over 100 µM. The TGI (DMS 273 small cell lung) was over 100 µM, the TGI (MOLT-4 leukemia) was over 100 µM and the TGI (SK-MEL-28 melanoma) was over 100 µM. It also gave a TGI (HCC-2998 colon) of over 100 µM, a TGI (DMS 114 small cell lung) of over 100 µM and a TGI (IGROV1 ovarian) of over 100 µM. For the same compound, the TGI (HCT-15 colon) was over 100 µM, the TGI (RPMI-8226 leukemia) was 81.4 µM and the TGI (SF-268 CNS) was over 100 µM. For the same compound, the TGI (ACHN renal) was over 100 µM, the TGI (XF 498 CNS) was over 100 µM and the TGI (M14 melanoma) was over 100 µM. For the same compound, the TGI (OVCAR-8 ovarian) was over 100 µM, the TGI (LOX IMVI melanoma) was over 100 µM and the TGI (OVCAR-5 ovarian) was over 100 µM. The TGI (U251 CNS) was over 100 µM, the TGI (SR leukemia) was over 100 µM and the TGI (CCRF-CEM leukemia) was over 100 µM. It also gave a TGI (KM20L2 colon) of over 100 µM, a TGI (NCI-H226 lung) of over 100 µM and a TGI (OVCAR-4 ovarian) of over 100 µM. It also gave a TGI (MALME-3M melanoma) of over 100 µM, a TGI (RXF 393 renal) of over 100 µM and a TGI (KM12 colon) of over 100 µM. It also gave a TGI (M19-MEL melanoma) of over 100 µM, a TGI (UACC-62 melanoma) of over 100 µM and a TGI (A549 NSCLC) of over 100 µM. It also gave a TGI (A498 renal) of over 100 µM, a TGI (HOP-92 NSCLC) of over 100 µM and a TGI (UO-31 renal) of over 100 µM. For the same compound, the TGI (COLO 205 colon) was over 100 µM, the TGI (NCI-H460 lung) was over 100 µM and the TGI (SNB-75 CNS) was over 100 µM. It also gave a TGI (NCI-H522 lung) of over 100 µM.

Work on CCC12C=CCN3CC[C@]4(C(=C(C(=O)OC)[C@@H]1Nc1ccn(C5OC(COC(C)=O)C(OC(C)=O)C5OC(C)=O)c(=O)n1)Nc1ccccc14)C32 (stereo partly drawn) yielded a TGI (HT29 colon) of 8.4 µM, a TGI (786-0 renal) of 8.9 µM and a TGI (SNB-78 CNS) of 13.8 µM. The TGI (SF-539 CNS) was 9.17 µM, the TGI (HCT-116 colon) was 7.37 µM and the TGI (CAKI-1 renal) was 15.8 µM. The TGI (LXFL 529 NSCLC) was 8.94 µM, the TGI (SW-620 colon) was 9.41 µM and the TGI (SN12C renal) was 8.24 µM. The TGI (HL-60(TB) leukemia) was 12.6 µM, the TGI (HOP-18 NSCLC) was 14.1 µM and the TGI (SK-MEL-5 melanoma) was 8.1 µM. For the same compound, the TGI (DLD-1 colon) was 9.14 µM, the TGI (SNB-19 CNS) was 9.27 µM and the TGI (EKVX NSCLC) was 14.3 µM. For the same compound, the TGI (UACC-257 melanoma) was 3.62 µM, the TGI (TK-10 renal) was 10.1 µM and the TGI (NCI-H23 lung) was 3.43 µM. For the same compound, the TGI (HOP-62 NSCLC) was 8.83 µM, the TGI (K-562 leukemia) was 17.1 µM and the TGI (SK-MEL-2 melanoma) was 5.58 µM. The TGI (SF-295 CNS) was 10.2 µM, the TGI (OVCAR-3 ovarian) was 7.8 µM and the TGI (DMS 273 small cell lung) was 8.54 µM. It also gave a TGI (MOLT-4 leukemia) of 23.5 µM, a TGI (SK-MEL-28 melanoma) of 8.43 µM and a TGI (HCC-2998 colon) of 7.73 µM. It also gave a TGI (IGROV1 ovarian) of 9.68 µM, a TGI (HCT-15 colon) of 6.83 µM and a TGI (RPMI-8226 leukemia) of 14.7 µM. For the same compound, the TGI (SF-268 CNS) was 10.9 µM, the TGI (ACHN renal) was 8 µM and the TGI (XF 498 CNS) was 9.63 µM. For the same compound, the TGI (M14 melanoma) was 8.51 µM, the TGI (OVCAR-8 ovarian) was 11 µM and the TGI (LOX IMVI melanoma) was 7.81 µM. It also gave a TGI (OVCAR-5 ovarian) of 3.6 µM, a TGI (U251 CNS) of 7.69 µM and a TGI (SK-OV-3 ovarian) of 9.45 µM. It also gave a TGI (SR leukemia) of 10.2 µM, a TGI (CCRF-CEM leukemia) of 13.2 µM and a TGI (KM20L2 colon) of 8.19 µM. The TGI (NCI-H226 lung) was 8.25 µM, the TGI (OVCAR-4 ovarian) was 3.57 µM and the TGI (MALME-3M melanoma) was 9.74 µM. It also gave a TGI (RXF 393 renal) of 6.45 µM, a TGI (KM12 colon) of 2.54 µM and a TGI (M19-MEL melanoma) of 7.45 µM. For the same compound, the TGI (UACC-62 melanoma) was 6.94 µM, the TGI (A549 NSCLC) was 15.1 µM and the TGI (A498 renal) was 10.7 µM. The TGI (HOP-92 NSCLC) was 8.02 µM, the TGI (UO-31 renal) was 7.64 µM and the TGI (COLO 205 colon) was 8.11 µM. The TGI (NCI-H460 lung) was 8.62 µM, the TGI (SNB-75 CNS) was 7.63 µM and the TGI (NCI-H522 lung) was 7.17 µM.
